These results are taken from patent US7973075B2, “Kainate receptor-selective epimeric analogs of dysiherbaine” (priority 2007, dated 2011).

Read-outs that look alike come from different tables or passages of the source.

Test [1] has as its target T1, other KAR and AMPAR subunits.
T1 construct: Ki values at other KAR and AMPAR subunits (all subunits except those named); other: estimated
Put plainly: Radioligand binding, remaining subunits stated collectively, Example 2. Conditions: estimated; read-out: Ki values at other KAR and AMPAR subunits (all subunits except those named). As for the experimental part: (§1) Radioligand binding. Membrane preparations from HEK-293-T/17 cells were prepared and used in radioligand binding assays as described previously (Sanders et al., 2005). Unlabeled analogs were used to displace [3H]kainate (10-20 nM, PerkinElmer Life and Analytical Sciences, Boston, Mass.) or [3H]AMPA (20 nM, PerkinElmer Life and Analytical Sciences, Boston, Mass.) from KARs and AMPARs, respectively. Nonspecific binding was determined in the presence of 1 mM glutamate. After 1 hour incubation at 4° C., samples were harvested by rapid filtration onto Whatman GF/C membranes. Upon addition of scintillation fluid, membranes were incubated for 1 hour at room temperature. A Beckman LS5000TD scintillation counter was used for quantification (Beckman Coulter Inc., Fullerton, Calif.). Data were plotted and fit with a one-site competition curve with fixed minima and maxima using Prism 4 (GraphPad Software, Inc). Ki's were calculated with the Cheng-Prusoff equation using the determined IC5o values and the radioligand Kd. Data were plotted and fit with a one-site competition curve with fixed minima (0) and maxima (100) (Prism4, GraphPad Software, Inc.). Correlation analysis was performed with these binding data and the seizure activity of each analog, represented as ED50 values.
(§2) The pharmacological profiles of the Group I analogs, 8-deoxy-neoDH and 9-deoxyneoDH, were analyzed initially in radioligand binding experiments with expressed recombinant AMPA and kainate receptor subunits. Displacement of [3H]kainate from cell membranes with a range of analog concentrations yielded IC50 values that were then used to calculate Ki values for each analog/receptor combination. Both Group 1 analogs retained high affinity only for GluR5-2a KAR subunits (FIG. 8A). […] Weak binding to other KAR and AMPAR subunits was observed, with all Ki values estimated at >10 μM (n=3-5; Table 3, FIG. 8A).
(§3) For comparison, the Ki values for neoDH and MSVIII-19 are included in the table (Sanders et al., 2005). Removal of the C9 hydroxyl eliminated binding to all receptor subunits (Ki values estimated at >100 μM), with the exception of GluR5-2a KARs.

Test [2] relates to other KAR and AMPAR subunits. The test is described as above. How it is done: as §1, §2, §3
For another test, the target named is T2, KA2 (Rattus norvegicus, UniProt Q63273).
T2 construct: expressed in transfected cells; host or cells: HEK-293-T/17
T2 sequence (Q63273 15-979): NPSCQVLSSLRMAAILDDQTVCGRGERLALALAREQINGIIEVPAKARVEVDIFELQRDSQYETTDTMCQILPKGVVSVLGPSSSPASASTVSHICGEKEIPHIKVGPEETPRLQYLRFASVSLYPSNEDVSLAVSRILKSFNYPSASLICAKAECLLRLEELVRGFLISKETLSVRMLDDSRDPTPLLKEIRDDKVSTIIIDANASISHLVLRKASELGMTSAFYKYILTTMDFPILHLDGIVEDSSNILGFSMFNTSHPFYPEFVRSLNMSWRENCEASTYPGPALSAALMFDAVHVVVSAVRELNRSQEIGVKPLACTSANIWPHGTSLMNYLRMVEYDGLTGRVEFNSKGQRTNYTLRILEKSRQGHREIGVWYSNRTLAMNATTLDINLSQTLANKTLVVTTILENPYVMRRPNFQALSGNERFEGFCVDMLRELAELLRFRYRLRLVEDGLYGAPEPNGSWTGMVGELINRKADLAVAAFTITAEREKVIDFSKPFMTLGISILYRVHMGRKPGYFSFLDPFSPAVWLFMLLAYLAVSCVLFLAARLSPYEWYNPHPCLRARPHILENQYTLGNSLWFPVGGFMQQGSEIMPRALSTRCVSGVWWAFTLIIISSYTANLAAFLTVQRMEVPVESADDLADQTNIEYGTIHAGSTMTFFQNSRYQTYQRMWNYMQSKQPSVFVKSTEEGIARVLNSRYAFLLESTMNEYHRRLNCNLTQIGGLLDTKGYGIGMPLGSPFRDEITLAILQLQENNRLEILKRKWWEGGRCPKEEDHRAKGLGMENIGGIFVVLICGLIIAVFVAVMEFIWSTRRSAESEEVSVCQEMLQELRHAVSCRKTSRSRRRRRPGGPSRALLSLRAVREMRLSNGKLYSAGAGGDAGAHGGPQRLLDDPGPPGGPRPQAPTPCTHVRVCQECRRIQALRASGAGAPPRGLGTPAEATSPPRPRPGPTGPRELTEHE
The test is described as follows: Radioligand displacement ([3H]kainate), Example 1. Type of test: binding. As for the experimental part:
(§4) Dysiherbaine (DH) was used as a template for generating novel KAR ligands. (See FIG. 1.) These included 8-deoxy and 9-deoxy analogs of neodysiherbaine (neoDH). (See FIG. 2.) The binding of these analogs to glutamate receptors was assessed by radioligand binding as follows. Membrane preparations from COS-7 or HEK-T/17 cells were isolated 2-3 days after transfection. Displacement assays were performed as described previously (Swanson et al., NEURON 1997; 19:913-26). Unlabeled marine toxin analogs were used to displace [^3H]kainate or [^3H]AMPA (PerkinElmer) from kainate and AMPA receptors, respectively. (See FIG. 2 and Table 1.)
(§5) Non-specific binding was defined in the presence of 1 mM glutamate. The effect of these analogs on electrophysiology was assessed as follows. HEK 293 cells were transfected with receptor cDNAs in combination with eGFP cDNA. Patch-clamp recordings from transfected cells were made 24-72 hours later using a fast application system described previously (Swanson et al., NEURON 1997; 19:913-26). (See FIG. 3.)
(§6) Additional epimer analogs were generated. These included 4-epi-neodysiherbaine, 8-epi-neodysiherbaine, 9-epi-neodysiherbaine, and 8,9-epi-neodysiherbaine. (See FIG. 4.) The binding of these analogs to glutamate receptors was assessed by radioligand binding as described above. (See FIG. 4 and Table 2.)
(In general: In a radioligand displacement assay an active substance lowers the binding of a labelled ligand.)

The target in the next test is T3, GluR7 (Rattus norvegicus, UniProt P42264).
T3 construct: expressed in transfected cells; host or cells: COS-7 or HEK-T/17
T3 sequence (P42264 32-919): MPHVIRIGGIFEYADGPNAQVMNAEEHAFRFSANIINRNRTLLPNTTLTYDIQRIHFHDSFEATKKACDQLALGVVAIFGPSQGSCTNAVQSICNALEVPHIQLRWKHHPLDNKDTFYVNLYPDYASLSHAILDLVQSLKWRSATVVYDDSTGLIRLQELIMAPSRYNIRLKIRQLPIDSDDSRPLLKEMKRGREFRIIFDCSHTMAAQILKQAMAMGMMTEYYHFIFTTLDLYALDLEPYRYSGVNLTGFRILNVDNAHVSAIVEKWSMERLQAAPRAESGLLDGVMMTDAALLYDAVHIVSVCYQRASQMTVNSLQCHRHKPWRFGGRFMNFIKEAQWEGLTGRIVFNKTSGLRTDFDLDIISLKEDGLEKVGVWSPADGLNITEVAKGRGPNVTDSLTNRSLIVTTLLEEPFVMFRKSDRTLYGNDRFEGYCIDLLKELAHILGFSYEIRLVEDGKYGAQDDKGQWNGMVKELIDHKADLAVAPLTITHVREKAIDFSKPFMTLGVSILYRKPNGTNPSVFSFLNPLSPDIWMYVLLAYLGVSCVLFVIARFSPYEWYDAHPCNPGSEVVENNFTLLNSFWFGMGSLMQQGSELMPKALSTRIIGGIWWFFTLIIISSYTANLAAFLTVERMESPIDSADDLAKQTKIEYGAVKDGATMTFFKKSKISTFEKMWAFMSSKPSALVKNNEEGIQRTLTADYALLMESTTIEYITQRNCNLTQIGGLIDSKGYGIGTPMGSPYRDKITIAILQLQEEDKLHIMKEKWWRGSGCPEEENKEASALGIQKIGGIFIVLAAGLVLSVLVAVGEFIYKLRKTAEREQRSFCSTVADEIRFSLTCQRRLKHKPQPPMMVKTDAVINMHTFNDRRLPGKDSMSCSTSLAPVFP
Put plainly: Radioligand displacement ([3H]kainate), Example 1. Type of test: binding. How it is done: as §4, §5, §6

The target in another test is T4, GluR6 (Rattus norvegicus, UniProt P42260).
T4 construct: expressed in transfected cells; HEK 293 (patch clamp)
T4 sequence (P42260 32-908): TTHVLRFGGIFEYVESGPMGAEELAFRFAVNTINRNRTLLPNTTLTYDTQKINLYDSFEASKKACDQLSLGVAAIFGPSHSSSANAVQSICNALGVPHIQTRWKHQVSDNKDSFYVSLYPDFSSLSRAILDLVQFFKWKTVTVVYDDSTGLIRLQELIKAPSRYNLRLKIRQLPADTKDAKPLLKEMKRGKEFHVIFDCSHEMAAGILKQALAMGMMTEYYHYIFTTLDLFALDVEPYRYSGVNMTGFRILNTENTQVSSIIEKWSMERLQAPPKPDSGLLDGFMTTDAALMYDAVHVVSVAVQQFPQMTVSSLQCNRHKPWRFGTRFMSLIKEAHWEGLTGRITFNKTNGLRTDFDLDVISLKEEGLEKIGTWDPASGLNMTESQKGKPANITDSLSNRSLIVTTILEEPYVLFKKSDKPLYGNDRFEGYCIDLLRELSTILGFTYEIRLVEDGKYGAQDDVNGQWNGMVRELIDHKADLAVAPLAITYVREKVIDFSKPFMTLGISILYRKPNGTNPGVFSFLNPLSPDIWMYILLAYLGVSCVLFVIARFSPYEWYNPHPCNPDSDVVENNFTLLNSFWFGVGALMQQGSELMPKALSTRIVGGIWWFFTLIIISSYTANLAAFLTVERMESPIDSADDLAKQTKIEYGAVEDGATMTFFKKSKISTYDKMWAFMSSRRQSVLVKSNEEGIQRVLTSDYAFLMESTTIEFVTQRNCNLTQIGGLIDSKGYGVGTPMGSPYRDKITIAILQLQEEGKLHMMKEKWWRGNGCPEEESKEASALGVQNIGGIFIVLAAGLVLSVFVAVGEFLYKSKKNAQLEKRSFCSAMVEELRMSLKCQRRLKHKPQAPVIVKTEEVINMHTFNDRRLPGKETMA
The test is described as follows: Radioligand displacement ([3H]kainate), Example 1. Type of test: binding. As for the experimental part: as §4, §5, §6

The target of the next test is T5, GluR5 (Rattus norvegicus, UniProt P22756).
T5 construct: expressed in transfected cells; HEK 293 (patch clamp)
T5 sequence (P22756 with tags, fused parts or gaps isoform P22756-2): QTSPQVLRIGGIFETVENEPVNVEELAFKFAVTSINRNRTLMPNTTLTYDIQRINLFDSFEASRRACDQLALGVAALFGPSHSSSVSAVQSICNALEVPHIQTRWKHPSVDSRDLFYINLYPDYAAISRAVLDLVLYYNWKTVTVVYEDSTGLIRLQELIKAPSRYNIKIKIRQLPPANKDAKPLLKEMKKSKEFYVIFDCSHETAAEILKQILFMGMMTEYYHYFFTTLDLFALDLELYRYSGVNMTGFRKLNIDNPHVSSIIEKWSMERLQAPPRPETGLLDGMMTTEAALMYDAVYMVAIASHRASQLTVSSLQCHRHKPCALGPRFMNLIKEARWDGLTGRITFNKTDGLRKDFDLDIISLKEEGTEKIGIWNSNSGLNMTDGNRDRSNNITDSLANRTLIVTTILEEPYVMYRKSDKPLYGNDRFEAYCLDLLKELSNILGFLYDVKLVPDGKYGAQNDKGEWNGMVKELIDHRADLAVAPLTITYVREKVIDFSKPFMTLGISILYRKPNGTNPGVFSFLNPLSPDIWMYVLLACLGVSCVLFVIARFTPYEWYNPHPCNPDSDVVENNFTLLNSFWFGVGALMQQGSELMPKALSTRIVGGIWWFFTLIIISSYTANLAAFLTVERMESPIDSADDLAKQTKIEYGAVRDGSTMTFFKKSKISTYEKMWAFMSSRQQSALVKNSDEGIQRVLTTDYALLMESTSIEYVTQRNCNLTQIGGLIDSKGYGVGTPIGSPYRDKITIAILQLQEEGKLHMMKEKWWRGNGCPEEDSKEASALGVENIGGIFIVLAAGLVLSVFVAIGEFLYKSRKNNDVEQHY
The test is described as follows: Radioligand displacement ([3H]kainate), Example 1. Type of test: binding. How it is done:
as §4, §5, §6

In the next test the target is T6, GluR1 (Rattus norvegicus, UniProt P19490).
T6 construct: expressed in transfected cells; host or cells: COS-7 or HEK-T/17
T6 sequence (P19490 19-907 isoform P19490-2 limits assumed): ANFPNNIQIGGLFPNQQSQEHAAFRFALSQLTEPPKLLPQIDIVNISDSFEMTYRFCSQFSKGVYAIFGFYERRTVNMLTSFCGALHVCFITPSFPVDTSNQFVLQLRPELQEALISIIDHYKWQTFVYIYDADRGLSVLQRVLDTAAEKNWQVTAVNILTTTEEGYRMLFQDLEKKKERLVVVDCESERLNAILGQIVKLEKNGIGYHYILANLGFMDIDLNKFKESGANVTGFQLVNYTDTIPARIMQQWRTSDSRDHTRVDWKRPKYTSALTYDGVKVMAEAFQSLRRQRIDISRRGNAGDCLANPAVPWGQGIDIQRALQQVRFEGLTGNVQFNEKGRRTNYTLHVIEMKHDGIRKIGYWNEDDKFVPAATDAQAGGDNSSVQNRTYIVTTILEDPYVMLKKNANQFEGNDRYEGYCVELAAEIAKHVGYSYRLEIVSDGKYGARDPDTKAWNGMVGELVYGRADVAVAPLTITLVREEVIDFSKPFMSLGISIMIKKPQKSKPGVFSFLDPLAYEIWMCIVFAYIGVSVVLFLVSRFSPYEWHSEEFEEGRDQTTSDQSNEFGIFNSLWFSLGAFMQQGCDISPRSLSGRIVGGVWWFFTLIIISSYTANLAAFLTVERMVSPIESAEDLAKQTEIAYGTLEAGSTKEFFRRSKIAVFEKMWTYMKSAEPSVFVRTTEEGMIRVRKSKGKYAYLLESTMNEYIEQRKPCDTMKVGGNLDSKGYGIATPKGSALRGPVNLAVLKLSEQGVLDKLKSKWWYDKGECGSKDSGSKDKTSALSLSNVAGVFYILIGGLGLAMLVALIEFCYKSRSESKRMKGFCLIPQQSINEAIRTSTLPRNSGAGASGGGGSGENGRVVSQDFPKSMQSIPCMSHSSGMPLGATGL
The test is described as follows: Radioligand displacement ([3H]AMPA), Example 1. Type of test: binding. As for the experimental part:
as §4, §5, §6

Another test concerns the target T7, GluR2 (Rattus norvegicus, UniProt P19491).
T7 construct: expressed in transfected cells; host or cells: COS-7 or HEK-T/17
The test is described as follows: Radioligand displacement ([3H]AMPA), Example 1. Type of test: binding. How it is done: as §4, §5, §6

The mark [3] stands for this setting: Tables 1-2, read-out: KA2 binding affinity (displacement of [3H]kainate).
Where [4] appears, read: Tables 1-2, read-out: GluR7 binding affinity (displacement of [3H]kainate).
Setting [5] is: Tables 1-2, read-out: GluR6 binding affinity (displacement of [3H]kainate).
Where [6] appears, read: Tables 1-2, read-out: GluR1 binding affinity (displacement of [3H]AMPA).
[7] abbreviates: Tables 1-2, read-out: GluR2 binding affinity (displacement of [3H]AMPA).
Where [8] appears, read: Tables 1-2, membranes of transfected COS-7 or HEK-T/17 cells, read-out: GluR5 binding affinity (displacement of [3H]kainate).

T7 sequence (P19491 22-883 isoform P19491-2 limits assumed): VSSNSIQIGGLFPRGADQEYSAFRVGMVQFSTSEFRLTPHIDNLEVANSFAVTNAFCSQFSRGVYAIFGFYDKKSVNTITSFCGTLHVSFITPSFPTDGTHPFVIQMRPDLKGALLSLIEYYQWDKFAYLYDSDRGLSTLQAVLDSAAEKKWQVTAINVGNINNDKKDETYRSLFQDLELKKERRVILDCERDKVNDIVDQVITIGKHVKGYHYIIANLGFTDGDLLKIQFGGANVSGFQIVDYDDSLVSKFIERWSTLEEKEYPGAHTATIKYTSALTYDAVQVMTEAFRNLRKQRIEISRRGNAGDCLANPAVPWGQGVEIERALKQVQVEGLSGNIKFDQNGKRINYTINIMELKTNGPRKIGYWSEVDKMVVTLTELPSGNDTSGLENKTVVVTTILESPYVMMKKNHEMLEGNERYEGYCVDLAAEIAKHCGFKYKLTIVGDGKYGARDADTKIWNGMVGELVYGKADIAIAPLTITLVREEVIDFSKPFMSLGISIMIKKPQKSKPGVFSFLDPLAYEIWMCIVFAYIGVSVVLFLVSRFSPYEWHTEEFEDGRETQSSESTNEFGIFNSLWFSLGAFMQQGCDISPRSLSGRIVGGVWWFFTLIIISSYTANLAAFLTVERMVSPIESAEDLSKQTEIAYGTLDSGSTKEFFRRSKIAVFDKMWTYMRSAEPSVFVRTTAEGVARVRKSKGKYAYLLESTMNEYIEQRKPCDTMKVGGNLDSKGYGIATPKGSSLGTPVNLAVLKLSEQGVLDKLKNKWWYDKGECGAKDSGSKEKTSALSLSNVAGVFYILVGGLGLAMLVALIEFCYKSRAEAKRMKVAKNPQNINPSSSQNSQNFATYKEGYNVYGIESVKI

Consider `N[C@@H](C[C@@]1(C(=O)O)CC2OCC(O)C(O)C2O1)C(=O)O` (single isomer, unassigned) [2,4-epi-neoDH, 2,4-epi-neodysiherbaine], for which the Ki in test [1] is greater than 100 µM.
For `N[C@@H](C[C@@]1(C(=O)O)CC2OCC(O)C(O)C2O1)C(=O)O` (single isomer, unassigned) [4-epi-neoDH, 4-epi-neodysiherbaine], in test [2], the “binding to other KA and AMPAR subunits” value was “weakly displaced radioligand”.
Consider `NC(CC1(C(=O)O)CC2OCC(O)C(O)C2O1)C(=O)O` (stereo not drawn) [8,9-epi-neoDH, 8,9-epi-neodysiherbaine], for which the Ki was greater than 100 µM at KA2 (setting [3]); greater than 100 µM on GluR7 (setting [4]); greater than 100 µM on GluR6 (setting [5]); 48 µM on GluR5 (Table 2, read-out: GluR5 binding affinity (displacement of [3H]kainate)); greater than 100 µM at GluR1 (setting [6]); greater than 100 µM on GluR2 (setting [7]). Also, the “binding to other KA and AMPAR subunits” value in test [2] is reported as “effectively eliminated affinity for all receptor subunits”.
On to `N[C@@H](C[C@]1(C(=O)O)C[C@H]2OC[C@@H](O)C[C@H]2O1)C(=O)O` [8-deoxy-neoDH], for which the Ki on KA2 is 36 µM; on GluR7, 21 µM; on GluR6, 76 µM; at GluR5 it was 0.0011 µM; in test [1], greater than 10 µM; on GluR1, greater than 100 µM. Besides, the Ki at GluR2 was greater than 100 µM.
As for `NC(CC1(C(=O)O)CC2OCC(O)C(O)C2O1)C(=O)O` (stereo not drawn) [8-epi-neoDH, 8-epi-neodysiherbaine], the Ki was greater than 100 µM on KA2 (setting [3]); 22 µM at GluR6 (setting [5]); 0.034 µM on GluR5 (setting [8]); 17 µM at GluR1 (setting [6]); 23 µM at GluR2 (setting [7]).
Consider `N[C@@H](C[C@]1(C(=O)O)C[C@H]2OCC[C@@H](O)[C@H]2O1)C(=O)O` [9-deoxy-neoDH], for which the Ki at KA2 (setting [3]) was greater than 100 µM; at GluR7 (setting [4]), greater than 100 µM; on GluR6 (setting [5]) it was greater than 100 µM; at GluR5 (setting [8]), 0.168 µM; in test [1] it was greater than 100 µM; on GluR1 (setting [6]), greater than 100 µM. Further, on GluR2 (setting [7]), the Ki was greater than 100 µM.
In the case of `NC(CC1(C(=O)O)CC2OCC(O)C(O)C2O1)C(=O)O` (stereo not drawn) [9-epi-neoDH, 9-epi-neodysiherbaine], the Ki was greater than 100 µM at KA2 (setting [3]); greater than 100 µM at GluR7 (setting [4]); greater than 100 µM on GluR6 (setting [5]); 0.296 µM at GluR5 (setting [8]); greater than 100 µM at GluR1 (setting [6]); greater than 100 µM at GluR2 (setting [7]). Besides, in test [2], the “binding to other KA and AMPAR subunits” value was “inactive at other subunits”.
